Type in all cases: cell-based
Assay [1] concerns bacteria causing the soft rot (Erwinia carotovora). Kind of assay: Inhibition test of growth of bacteria causing soft rot, Reference Test Example 4. The conditions noted are these: for formed colonies (growth state), grade: PSA medium, 27 degrees Celsius, 2 days. The text has this: (§1) An inhibition test of the growth of bacteria causing the soft rot was done, when a control agent was directly applied to the bacteria causing the soft rot. A given volume of each pesticide of kresoxim-methyl (STROBY DF [trade name] manufactured by BASF), thiophanate methyl (Topsin M WP [trade name], manufactured by Nippon Soda Co., Ltd), boscalid (Cantus DF [trade name] manufactured by BASF), procymidone (Sumilex WP [trade name] manufactured by Sumitomo Chemical Agro Co., Ltd.) and streptomycin (Mycin Wettable powder [trade name] manufactured by Hokko Chemical Industry Co., Ltd.) was added together with a suspension of the bacteria causing the soft rot (Erwinia carotovora) to a preliminarily dissolved PSA culture medium (55 degrees Celsius) for subsequent thorough agitation, which was then spread on a plate for culturing at 27 degrees Celsius for 2 days, to examine the growth state. Subsequently, the formed colonies were examined according to the following three grades. • +: at the same level as the level of non-treated lot. Plus or minus: apparently less than the colonies of the non-treated lot. • −: almost no colonies observed.

Assay [2] shares this test system. Kind of assay: Inhibition test of growth of bacteria causing soft rot, Reference Test Example 3. As to conditions: for formed colonies (growth state), grade: PSA medium, 27 degrees Celsius, 2 days.
Text: as §1, with “Inhibition test of growth of bacteria causing soft rot of potato An” for “An”, “triflumizol (TRIFUMIN WP” for “kresoxim-methyl (STROBY DF”, “name]” for “name] manufactured by BASF), thiophanate methyl (Topsin M WP [trade name],”, “Ltd.), chlorothalonil (Daconil 1000” for “Ltd), boscalid (Cantus DF”, “name],” for “name] manufactured by BASF), procymidone (Sumilex WP [trade name]”, “Company, Limited)” for “Agro Co., Ltd.)”

Assay [3] shares this test system. Kind of assay: Inhibition test of growth of bacteria causing soft rot, Reference Test Example 6. As to conditions: for formed colonies (growth state), grade: PSA medium, 27 degrees Celsius, 3 days. The text has this: (§2) An inhibition test of the growth of bacteria causing the soft rot was done, when a control agent was directly applied to the bacteria causing the soft rot. A given volume of each pesticide of fludioxonil (Seibia FL [trade name] manufactured by Syngenta Japan K.K.), iminoctadine albesilate salt (Bellkute WP [trade name], manufactured by Nippon Soda Co., Ltd.), iprodione (Rovral WP [trade name] manufactured by Bayer Crop Science Co., Ltd.), and streptomycin (Mycin Wettable powder [trade name] manufactured by Hokko Chemical Industry Co., Ltd.) was added together with a suspension of the bacteria causing the soft rot (Erwinia carotovora) to a preliminarily dissolved PSA culture medium (55 degrees Celsius) for subsequent thorough agitation, which was then spread on a plate for culturing at 27 degrees Celsius for 3 days, to examine the growth state. Subsequently, the formed colonies were examined according to the following three grades. • +: at the same level as the level of non-treated lot.
(§3) Plus or minus: apparently less than the colonies of the non-treated lot. • −: almost no colonies observed.

For assay [4] the test system is unchanged. Kind of assay: Inhibition test of growth of bacteria causing soft rot, Reference Test Example 5. As to conditions: for formed colonies (growth state), grade: PSA medium, 27 degrees Celsius, 2 days. How it is done: as §2, with “mepanipyrim (Flupika” for “fludioxonil (Seibia”, “by” for “by Syngenta Japan K.K.), iminoctadine albesilate salt (Bellkute WP [trade name], manufactured by”, “Ltd.)” for “Ltd.), iprodione (Rovral WP [trade name] manufactured by Bayer Crop Science Co., Ltd.),”, “2” for “3”
as §3

Setting [5] is: active ingredient concentration of 10 ppm.

For the compound `[H]/N=C(/N)N[C@H]1[C@H](O)[C@@H](O)[C@H](O[C@@H]2O[C@@H](C)[C@](O)(C=O)[C@H]2O[C@@H]2O[C@@H](CO)[C@H](O)[C@@H](O)[C@@H]2NC)[C@@H](N/C(N)=N\[H])[C@@H]1O` [Streptomycin], the “formed colonies (growth state), grade” value in assay [1] (1 ppm active ingredient) is “−, −”; in assay [1] (10 ppm active ingredient) it was “−, −”; in assay [2] (1 ppm active ingredient) it was “+, ±”; in assay [2] (10 ppm active ingredient), “−, −”; in assay [3] (1 ppm active ingredient), “+, +”; in assay [3] (10 ppm active ingredient), “−, ±”. The “formed colonies (growth state), grade” value in assay [4] (1 ppm active ingredient) was “+, ±”; in assay [4] (10 ppm active ingredient), “−, −”. Further, the “direct antibacterial activity against Erwinia carotovora (in words)” value in assay [1] (active ingredient concentration of 1 ppm), in assay [2] (setting [5]), in assay [3] (setting [5]) and in assay [4] (setting [5]) was “exerted a direct antibacterial activity” each time.

Source of the values: patent US20130123287A1, “CONTROL AGENT FOR SOFT ROT AND CONTROL METHOD FOR THE SAME” (ISHIHARA SANGYO KAISHA, LTD., priority 2010, published 2013).
